# Laboratory results taken from PubChem BioAssay (NCI).
#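 Growth conditions: 96-well plates. Treatment: test compound, 48 hours, 5 concentrations. Analysis: linear interpolation between bracketing concentrations; unreached endpoints set to highest concentration. The concentration for full growth arrest is given as TGI.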
# Columns and labels:
# Test in all cases: NCI tumour cell line growth inhibition, 48 h
# 786-0 renal = system: 786-0 renal
# A498 renal = system: A498 renal
# A549 NSCLC = system: A549 NSCLC
# ACHN renal = system: ACHN renal
# BT-549 breast = system: BT-549 breast
# CAKI-1 renal = system: CAKI-1 renal
# CCRF-CEM leukemia = system: CCRF-CEM leukemia
# COLO 205 colon = system: COLO 205 colon
# DU-145 prostate = system: DU-145 prostate
# EKVX NSCLC = system: EKVX NSCLC
# HCT-116 colon = system: HCT-116 colon
# HCT-15 colon = system: HCT-15 colon
# HL-60(TB) leukemia = system: HL-60(TB) leukemia
# HOP-62 NSCLC = system: HOP-62 NSCLC
# HOP-92 NSCLC = system: HOP-92 NSCLC
# HS 578T breast = system: HS 578T breast
# HT29 colon = system: HT29 colon
# IGROV1 ovarian = system: IGROV1 ovarian
# K-562 leukemia = system: K-562 leukemia
# KM12 colon = system: KM12 colon
# LOX IMVI melanoma = system: LOX IMVI melanoma
# M14 melanoma = system: M14 melanoma
# MALME-3M melanoma = system: MALME-3M melanoma
# MCF7 breast = system: MCF7 breast
# MDA-MB-231 breast = system: MDA-MB-231 breast
# MDA-MB-435 = system: MDA-MB-435
# MDA-N = system: MDA-N
# MOLT-4 leukemia = system: MOLT-4 leukemia
# NCI-H226 lung = system: NCI-H226 lung
# NCI-H23 lung = system: NCI-H23 lung
# NCI-H460 lung = system: NCI-H460 lung
# NCI-H522 lung = system: NCI-H522 lung
# NCI/ADR-RES ovarian = system: NCI/ADR-RES ovarian
# OVCAR-3 ovarian = system: OVCAR-3 ovarian
# OVCAR-4 ovarian = system: OVCAR-4 ovarian
# OVCAR-5 ovarian = system: OVCAR-5 ovarian
# OVCAR-8 ovarian = system: OVCAR-8 ovarian
# PC-3 prostate = system: PC-3 prostate
# RPMI-8226 leukemia = system: RPMI-8226 leukemia
# RXF 393 renal = system: RXF 393 renal
# SF-268 CNS = system: SF-268 CNS
# SF-295 CNS = system: SF-295 CNS
# SF-539 CNS = system: SF-539 CNS
# SK-MEL-28 melanoma = system: SK-MEL-28 melanoma
# SK-MEL-5 melanoma = system: SK-MEL-5 melanoma
# SK-OV-3 ovarian = system: SK-OV-3 ovarian
# SN12C renal = system: SN12C renal
# SNB-19 CNS = system: SNB-19 CNS
# SNB-75 CNS = system: SNB-75 CNS
# SR leukemia = system: SR leukemia
# SW-620 colon = system: SW-620 colon
# T-47D breast = system: T-47D breast
# TK-10 renal = system: TK-10 renal
# U251 CNS = system: U251 CNS
# UACC-257 melanoma = system: UACC-257 melanoma
# UACC-62 melanoma = system: UACC-62 melanoma
# UO-31 renal = system: UO-31 renal
smiles,measurement,setting,value
C/C(=C/CC[C@](C)(OC1OC(CO)C(O)C(O)C1O)[C@H]1CC[C@]2(C)[C@@H]1CC[C@@H]1[C@@]3(C)CC[C@H](O)C(C)(C)[C@@H]3C[C@H](O)[C@]12C)CO (some centres not stated),TGI,786-0 renal,61.2 µM
same,TGI,A498 renal,> 100 µM
same,TGI,A549 NSCLC,> 100 µM
same,TGI,ACHN renal,> 100 µM
same,TGI,BT-549 breast,31.2 µM
same,TGI,CAKI-1 renal,81.6 µM
same,TGI,CCRF-CEM leukemia,95.9 µM
same,TGI,COLO 205 colon,41 µM
same,TGI,DU-145 prostate,> 100 µM
same,TGI,EKVX NSCLC,> 100 µM
same,TGI,HCT-116 colon,42.7 µM
same,TGI,HCT-15 colon,57.5 µM
same,TGI,HL-60(TB) leukemia,49.9 µM
same,TGI,HOP-62 NSCLC,69.9 µM
same,TGI,HOP-92 NSCLC,> 100 µM
same,TGI,HS 578T breast,55.3 µM
same,TGI,HT29 colon,45.1 µM
same,TGI,IGROV1 ovarian,> 100 µM
same,TGI,K-562 leukemia,62.2 µM
same,TGI,KM12 colon,47.8 µM
same,TGI,LOX IMVI melanoma,33.9 µM
same,TGI,M14 melanoma,> 100 µM
same,TGI,MALME-3M melanoma,56.5 µM
same,TGI,MCF7 breast,> 100 µM
same,TGI,MDA-MB-231 breast,91.5 µM
same,TGI,MDA-MB-435,> 100 µM
same,TGI,MDA-N,56.6 µM
same,TGI,MOLT-4 leukemia,53.6 µM
same,TGI,NCI-H226 lung,60.4 µM
same,TGI,NCI-H23 lung,> 100 µM
same,TGI,NCI-H460 lung,48.9 µM
same,TGI,NCI-H522 lung,42.7 µM
same,TGI,NCI/ADR-RES ovarian,> 100 µM
same,TGI,OVCAR-3 ovarian,79.7 µM
same,TGI,OVCAR-4 ovarian,> 100 µM
same,TGI,OVCAR-5 ovarian,> 100 µM
same,TGI,OVCAR-8 ovarian,> 100 µM
same,TGI,PC-3 prostate,98.2 µM
same,TGI,RPMI-8226 leukemia,28.3 µM
same,TGI,RXF 393 renal,19.4 µM
same,TGI,SF-268 CNS,90.7 µM
same,TGI,SF-295 CNS,35.1 µM
same,TGI,SF-539 CNS,35.6 µM
same,TGI,SK-MEL-28 melanoma,38.5 µM
same,TGI,SK-MEL-5 melanoma,39.8 µM
same,TGI,SK-OV-3 ovarian,> 100 µM
same,TGI,SN12C renal,66.4 µM
same,TGI,SNB-19 CNS,56.5 µM
same,TGI,SNB-75 CNS,56 µM
same,TGI,SR leukemia,> 100 µM
same,TGI,SW-620 colon,62.4 µM
same,TGI,T-47D breast,60.4 µM
same,TGI,TK-10 renal,> 100 µM
same,TGI,U251 CNS,28.5 µM
same,TGI,UACC-257 melanoma,55.3 µM
same,TGI,UACC-62 melanoma,58.3 µM
same,TGI,UO-31 renal,> 100 µM
